# Counter-ions that a name gives are not always drawn. Like-named read-outs stand apart in the source and are kept apart here.
# Legend:
# Assay type in all cases: cell-based
# AmphiAmR11 [1] = target: T1, AmphiAmR11 (Branchiostoma floridae, UniProt A0PF35); assay: ERK1/2 phosphorylation in AmphiAmR11-expressing CHO-K1 cells (Western blotting); conditions: for Effect on ERK1/2 phosphorylation at 10 nM: 10 nM biogenic amine; for Effect of antagonist on ERK1/2 phosphorylation in the absence of dopamine: 1 μM antagonist
# T1 sequence (A0PF35 entry or part of it): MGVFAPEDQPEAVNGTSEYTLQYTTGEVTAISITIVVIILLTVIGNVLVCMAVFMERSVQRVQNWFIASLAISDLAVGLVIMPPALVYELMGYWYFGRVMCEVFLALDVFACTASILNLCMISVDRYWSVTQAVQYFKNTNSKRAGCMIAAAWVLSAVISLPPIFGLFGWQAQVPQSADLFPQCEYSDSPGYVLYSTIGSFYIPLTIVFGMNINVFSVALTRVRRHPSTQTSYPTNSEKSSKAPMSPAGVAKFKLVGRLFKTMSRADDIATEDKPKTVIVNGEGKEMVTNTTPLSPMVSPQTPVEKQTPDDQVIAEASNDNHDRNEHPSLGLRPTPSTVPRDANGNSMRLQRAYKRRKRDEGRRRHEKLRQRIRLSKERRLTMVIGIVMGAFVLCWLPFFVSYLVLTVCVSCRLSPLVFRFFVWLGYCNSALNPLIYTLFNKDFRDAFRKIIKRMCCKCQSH
# AmphiAmR11 [2] = target: T1, AmphiAmR11; assay: Inhibition of forskolin-stimulated cAMP levels in AmphiAmR11-expressing CHO-K1 cells (agonist mode); conditions: for Effect on forskolin-stimulated cAMP levels at 1 µM: 1 µM agonist
# Protocol: CHO-K1 cells were maintained in Ham’s F-12 nutrient media (Invitrogen Life Sciences) supplemented with 10% charcoal-stripped foetal bovine serum (CS-FBS) (Hyclone, Cramlington, UK), 50 U/μg penicillin/streptomycin and 4 mM L-glutamine (Invitrogen Life Sciences) in 5% CO2 at 37°C. Stably transfected cell lines were generated by the transfection of CHO-K1 cells using Lipofectamine (Invitrogen Life Sciences) as described previously [8, 9].
# cAMP levels in stably transfected CHO-K1 cells were determined as described previously [8, 9, 21], except 100 µM isobutylmethylxanthine (IBMX) was used. cAMP levels are represented as a percentage of basal samples unless otherwise stated. Student’s T-test (two-tailed and unpaired) was used to test for significance. Unless otherwise stated, all data are shown as mean ± SEM. Each data point plotted was the mean of data obtained from at least three experiments. Within each experiment three separate replicate wells were analysed for each condition and the cAMP assays on each of the wells was carried out in duplicate.
# Forskolin was used both to increase basal cAMP levels to make it easier to detect increases and decreases in cAMP levels in the same experiments and also to potentiate responses to agonists to more accurately determine their threshold effects [see 22]. A non-saturating 10 µM concentration of forskolin was used.
# Figure 1 Effect of biogenic amines and synthetic agonists on forskolin-stimulated cAMP levels in AmphiAmR11-expressing CHO-K1 cells. Cells were pre-incubated with 100 µM IBMX for 20 min, followed by incubation with 10 µM forskolin and 100 µM IBMX in the presence of increasing concentrations of various biogenic amines (A) or synthetic agonists (B) for a further 20 min. Data are expressed as the mean ± SEM. n ≥ 3.
# AmphiAmR11 [3] = target: T1, AmphiAmR11; assay: cell-based; conditions: for Effect on forskolin-stimulated cAMP levels following pertussis toxin treatment: amines at 100 µM, 16 hours
# AmphiAmR11 [4] = target: T1, AmphiAmR11; assay: Block of dopamine-induced ERK1/2 activation in AmphiAmR11-expressing CHO-K1 cells by antagonists; conditions: 1 µM antagonist, 10 nM dopamine, 5 min
# AmphiAmR11 [5] = target: T1, AmphiAmR11; assay: Block of tyramine-induced inhibition of forskolin-stimulated cAMP levels in AmphiAmR11-expressing CHO-K1 cells; conditions: 30 nM tyramine
# [6] = 1 µM synthetic agonist, 5 min, dopamine as reference
# [7] = 10 µM forskolin, 100 µM IBMX, 20 min, full concentration response curves, read-out: EC50 for decrease in forskolin-stimulated cAMP levels
# [8] = 10 µM forskolin, 100 µM IBMX, 20 min
# [9] = 1 μM antagonist, 10 µM forskolin
smiles,measurement,setting,value
"Br.C=CCN1CCc2c(cc(O)c(O)c2Cl)C(c2ccccc2)C1 (racemic) [6-Chloro-APB, (±)-6-chloro-7,8-dihydroxy-3-allyl-1-phenyl-2,3,4,5-tetrahydro-^1H-3-benzazepine hydrobromide]",Effect on ERK1/2 phosphorylation at 1 µM,AmphiAmR11 [1]; [6],"less effective than naphazoline, UK14,304 and quinpirole"
same,EC50,AmphiAmR11 [2]; [7],2230 nM
"CC(C)NCC(O)c1ccc(O)c(O)c1 (racemic) [isoproterenol, (±)-isoproterenol hydrochloride]",Effect on ERK1/2 phosphorylation at 1 µM,AmphiAmR11 [1]; [6],little or no effect
same,Effect on forskolin-stimulated cAMP levels at 1 µM,AmphiAmR11 [2]; [8],little or no effect
"CC(N)c1ccccc1 (racemic) [phenylethylamine, (±)-1-phenylethylamine]",Concentrations coupling AmphiAmR11 to an increase in cAMP levels,AmphiAmR11 [3]; after pertussis toxin,above 1 µM
same,Effect on forskolin-stimulated cAMP levels following pertussis toxin treatment,AmphiAmR11 [3]; pertussis toxin 200 ng/mL,increase in forskolin-stimulated cAMP levels
same,Concentration dependence of increase in forskolin-stimulated cAMP levels following pertussis toxin,"AmphiAmR11 [3]; pertussis toxin 200 ng/mL, 16 h, up to 100 µM",concentration-dependent effects
same,EC50,"AmphiAmR11 [1]; 5 min stimulation, read-out: EC50 for inducing ERK1/2 phosphorylation",57.8 nM
same,EC50,AmphiAmR11 [2]; [7],16.5 nM
"CNCC(O)c1ccc(O)cc1 (racemic) [synephrine, (±)-synephrine]",Effect on forskolin-stimulated cAMP levels following pertussis toxin treatment,AmphiAmR11 [3]; pertussis toxin 200 ng/mL,did not induce an increase
same,Effect on ERK1/2 phosphorylation at 10 nM,AmphiAmR11 [1]; 5 min,not able to increase
same,EC50,AmphiAmR11 [2],1650 nM
"Oc1cc2c(cc1O)[C@@H](c1ccccc1)CNCC2 [SKF38393, R(+)-1-phenyl-2,3,4,5-tetrahydro-(^1H)-3-benzazepine-7,8-diol]",Effect on ERK1/2 phosphorylation at 1 µM,AmphiAmR11 [1]; [6],"less effective than naphazoline, UK14,304 and quinpirole"
same,EC50,AmphiAmR11 [2]; [7],792 nM
"Brc1c(NC2=NCCN2)ccc2nccnc12 [UK14,304, UK14304]",Effect on ERK1/2 phosphorylation at 1 µM,AmphiAmR11 [1]; [6],most effective of the synthetic agonists
same,EC50,AmphiAmR11 [2],350 nM
COc1cccc(OC)c1OCCNCC1COc2ccccc2O1 (centres unmarked) [WB4101],Block of dopamine-induced ERK1/2 activation,AmphiAmR11 [4],partial effect
same,Effect of antagonist on ERK1/2 phosphorylation in the absence of dopamine,AmphiAmR11 [1],increase in ERK1/2 phosphorylation
same,Decrease of forskolin-stimulated cAMP levels by antagonist in the absence of agonist,AmphiAmR11 [2]; [9],could inhibit forskolin-stimulated cAMP levels
same,EC50,AmphiAmR11 [2]; [7],32 nM
same,Agonist type at AmphiAmR11 (full or partial),AmphiAmR11 [2]; cAMP assay,partial agonist
same,Inhibition of forskolin-stimulated cAMP levels (maximal),"AmphiAmR11 [2]; concentration-response curves, absence of other agonist",approximately 75%
same,Blocking effect on tyramine-induced response at reduced antagonist concentrations,AmphiAmR11 [5]; varying concentrations of antagonist,small blocking effect
"Clc1cccc(Cl)c1N=C1NCCN1 [clonidine, clonidine hydrochloride]",Effect on ERK1/2 phosphorylation at 1 µM,AmphiAmR11 [1],"less effective than naphazoline, UK14,304 and quinpirole"
same,EC50,AmphiAmR11 [2],623 nM
"NCCc1c[nH]cn1 [histamine, histamine dihydrochloride]",Effect on ERK1/2 phosphorylation at 10 nM,AmphiAmR11 [1]; 5 min,not able to increase
same,Effect on forskolin-stimulated cAMP levels at 1 µM,AmphiAmR11 [2]; [8],no effect
"CCN(CC)CCNC(=O)c1cc(Cl)c(N)cc1OC [metoclopramide, metoclopramide hydrochloride]",Block of dopamine-induced ERK1/2 activation,AmphiAmR11 [4],no significant effect
same,Effect of antagonist on ERK1/2 phosphorylation in the absence of dopamine,AmphiAmR11 [1],did not exhibit any agonistic properties
same,Block of tyramine-induced inhibition of forskolin-stimulated cAMP levels,AmphiAmR11 [5]; [9],no significant blocking effect
"CNC[C@H](O)c1cccc(O)c1 [phenylephrine, (R)-(-)-phenylephrine hydrochloride]",Effect on ERK1/2 phosphorylation at 1 µM,AmphiAmR11 [1]; [6],little or no effect
same,Effect on forskolin-stimulated cAMP levels at 1 µM,AmphiAmR11 [2]; [8],little or no effect

# From paper PMC3827198, “Characterisation of AmphiAmR11, an Amphioxus (Branchiostoma floridae) D2-Dopamine-Like G Protein-Coupled Receptor” (PLoS ONE, 2013)
